Reference: patent US12589143B2, “Human anti-PD-L1 peptide vaccines and methods of their use” (priority 2019, dated 2026)
Where no end group is shown, it is not given here.

System: CT26 colon carcinoma cell line
Assay: CT26 WT tumor challenge in immunized Balb/c mice
Type: in vivo
Settings: for tumor inhibition versus PBS: Balb/c; for average tumor growth inhibition: day 14 and 16
Excerpt: FIGS. 5A, 5B, 5C, and 5D show the experimental scheme to test the immunization with PD-L1 in Balb/c mice. […] Balb/c mice 6-8 weeks old, were immunized with MVF-peptide immunogens emulsified in ISA 720 with nor-MDP three times and three weeks apart. Mice were immunized with MVF-PD-L1 vaccine constructs [PD-L1(36-53), PD-L1(50-67), PD-L1(95-112), PD-L1(130-147)] prior to tumor challenge. Blood was collected weekly and sera tested for antibody titers by ELISA. Two weeks after the third immunization (3Y), the mice were engrafted with CT26 WT tumor cells 10^5 per mouse Control mice were treated twice weekly with PBS as negative control and twice weekly with anti-mPD-L1 mAb (10F.9G2) as positive control starting 2 days after tumor challenge. Tumor growths were observed twice weekly and measured by calipers.
The peptide vaccines were dissolved in water and emulsified in Montanide ISA 720 (1:1) and 100 μg nor-MDP (N-acetylglucosamine-3yl-acetyl-1-alanyl-d-isoglutamine). Female Balb/c mice (Charles River Laboratories) at the age of 5 to 6 weeks were immunized three times at 3-week intervals with 100 μg peptide vaccine, and 15 days after the third immunization, the mice were challenged s.c. with CT-26 tumor cells (100,000 per mouse). Mice immunized with an irrelevant MVF peptide chimera were used as a negative control.
Mice treated twice a week with anti-mouse PD-L1 MAb (Bio X Cell, West Lebanon, NH) 200 ug/dose was used as a positive control. Tumor growth was monitored for up to 18 days after challenge. During immunization, blood was drawn biweekly and used in ELISA to monitor Ab titers. The mice were euthanized at the end of treatment and tumors extracted and weighed samples of the tumors were saved for further study and for histological examination. The spleens were also collected for further examination.
Two weeks after the third immunization (3Y), the mice were inoculated subcutaneously (s.c) with CT26 carcinoma cells (1×10^5 cells per mouse) and tumor formation was monitored on a daily basis afterwards. Mice treated with PBS served as negative control, and twice weekly treated mice with 200 μg/dose injections of anti-mouse PD-L1 monoclonal antibody (mAb clone 10F.9G2) served as positive control. Tumor growth was monitored daily and measured by caliper. […] PD-L1 B-cell epitope vaccines treatment had similar and significant reduction in tumor growth at day 16 post challenge as compared to negative control treatment with PBS (FIG. 9).
6-8 weeks old BALB/c mice (Charles River, Wilmington, MA) were used as standard animal models. Mouse CT26 colon carcinoma cell line was purchased from American Type Culture Collection Cells and were regularly cultured in RPMI1640 medium containing 10% FBS. CT26/HER2 cells were kindly provided by M. Penichet. Vaccines were dissolved in sterile water and emulsified in Montanide ISA 720 (1:1). Female Balb/c mice (Charles River Laboratories) at the age of 6-8 weeks were immunized three times at 3-week intervals with 100 μg of each peptide vaccine, and 2 weeks after the third immunization, the mice were challenged with CT26 and/or CT26/HER-2 tumor cells, which were implanted subcutaneously (s.c) on the right flank (1×10^5 per mouse). 200 μg of rat α-mouse PD-L1 mAb 10F.9G2 (Bio X Cell, West Lebanon, NH) were administered intraperitoneally (i.p.), twice weekly following tumor inoculation in the control group. Mice were monitored and scored for the formation of palpable tumors on a daily basis and sacrificed if tumors became necrotic or exceeded the predetermined size of 2,000 mm^3. Tumor volumes were measured in cubic millimeters with calipers and calculated with the following formula: A×B^2×0.5, where A is the largest diameter, and B is the widest point perpendicular to length. During immunization, blood was drawn weekly and used in ELISA to monitor antibody titers.
Tumor sizes were observed daily and measured by caliper. Tumor volumes were calculated by formula: Volume=(Length*Width*Width)/2. […]

**Q.** With “KLLSLIKGVIVHRLEGVEGPSLFVHGEEDLKVQHSSYRQR (KLLSLIKGVIVHRLEGVEGPSLFVHGEEDLKVQHSSYRQR-NH2) [PD-L1(50)]” as the sequence, how does the “tumor inhibition versus PBS” value read?
**A.** significant inhibition of tumor growth

**Q.** And the “average tumor growth inhibition” value?
**A.** strongest average tumor growth inhibition

**Q.** For “KLLSLIKGVIVHRLEGVEGPSLLIVYWEMEDKNIIQFVHG (KLLSLIKGVIVHRLEGVEGPSLLIVYWEMEDKNIIQFVHG-NH2) [PD-L1(36)]”, which “average tumor growth inhibition” value is on record?
**A.** strongest average tumor growth inhibition

**Q.** With “KLLSLIKGVIVHRLEGVEGPSLVTSEHELTCQAEGYPKAE (KLLSLIKGVIVHRLEGVEGPSLVTSEHELTCQAEGYPKAE-NH2) [PD-L1(130)]” as the sequence, how does the levels of lesions read?
**A.** lowest levels of lesions

**Q.** And the “percentage of tumor growth inhibition compared to negative control” value?
**A.** Significant higher percentage of tumor growth inhibition

**Q.** What about the “tumor inhibition versus PBS” value of the same sequence?
**A.** significant inhibition of tumor growth

**Q.** What about the survival rate (Kaplan-Meier method) of the same sequence?
**A.** highest survival rate

**Q.** What about the “average tumor growth inhibition” value of the same sequence?
**A.** strongest average tumor growth inhibition
